For one compound, PC and C results are on record in ChEMBL document CHEMBL1144268, “Unified Markov thermodynamics based on stochastic forms to classify drugs considering molecular structure, partition system, and biological species: distribution of the antimicrobial G1 on rat tissues” (2005).

Common to all, as to format: functional
The species named for assay [1] is Rattus norvegicus. Briefly: Partition coefficient in rat liver.
The species named for assay [2] is Rattus norvegicus. Briefly: Partition coefficient in rat lung.
The species named for assay [3] is Rattus norvegicus. The experiment in a line: Plasma concentration measured in rat lung after treatment with the compound.
For assay [4], the species on record is Rattus norvegicus. Briefly: Plasma concentration measured in rat spleen after treatment with the compound.
The species entered for assay [5] is Rattus norvegicus. Briefly: Plasma concentration measured in rat plasma after treatment with the compound.
Assay [6] is filed under the species Rattus norvegicus. The experiment in a line: Plasma concentration measured in rat liver after treatment with the compound.
The species entered for assay [7] is Rattus norvegicus. Briefly: Partition coefficient in rat spleen.
The species entered for assay [8] is Rattus norvegicus. Briefly: Plasma concentration measured in rat adipose tissue after treatment with the compound.
The species entered for assay [9] is Rattus norvegicus. Briefly: Partition coefficient in rat adipose tissue.

In the case of `O=[N+]([O-])/C(Br)=C/C1CCC(Br)O1` (centres undefined), the PC was found to be 4.75 in the assay filed under Rattus norvegicus [1], 1.91 in the assay listed under Rattus norvegicus [2], 1.29 in the assay listed under Rattus norvegicus [7] and 3.17 in the assay filed under Rattus norvegicus [9]. The C was 17.04 mg/mL in the assay listed under Rattus norvegicus [3]; 11.47 mg/mL in the assay listed under Rattus norvegicus [4]; 8.9 mg/mL in the assay filed under Rattus norvegicus [5]; 42.25 mg/mL in the assay filed under Rattus norvegicus [6]; 28.19 mg/mL in the assay listed under Rattus norvegicus [8].
